#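 All cell lines were grown in 96-well plates and treated with compound for 48 hours. TGI denotes the concentration required for complete inhibition of growth.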
# Tested on: UACC-257 melanoma
# Assay: growth of human tumour cells (NCI), 48 h
row,SMILES,TGI
1,O=C(Nc1ccc([N+](=O)[O-])cc1)C1C(=O)C(=O)N(c2ccc([N+](=O)[O-])cc2)C1=O (stereo not given),> 100 µM
2,CCOC(=O)C1N(S(=O)(=O)c2ccc(C)cc2)CCC12C(c1ccc(OC)cc1)NC1CCCCC12 (stereo not given),> 100 µM
3,O=C(/C=C/c1ccccc1)/C=C/c1ccccc1,87 µM

# Tested on: HOP-62 NSCLC
# Assay: growth of human tumour cells (NCI), 48 h
row,SMILES,TGI
1,Cc1cccc(NC(=O)/C=C/c2ccc(N(CCC#N)CCC#N)cc2C)c1,> 100 µM
2,O=C(Nc1ccc([N+](=O)[O-])cc1)C1C(=O)C(=O)N(c2ccc([N+](=O)[O-])cc2)C1=O (stereo not given),> 100 µM
3,CCOC(=O)C1N(S(=O)(=O)c2ccc(C)cc2)CCC12C(c1ccc(OC)cc1)NC1CCCCC12 (stereo not given),> 100 µM
4,O=C(/C=C/c1ccccc1)/C=C/c1ccccc1,> 100 µM

# Tested on: SR leukemia
# Assay: growth of human tumour cells (NCI), 48 h
row,SMILES,TGI
1,O=C(Nc1ccc([N+](=O)[O-])cc1)C1C(=O)C(=O)N(c2ccc([N+](=O)[O-])cc2)C1=O (stereo not given),> 100 µM
2,O=C(/C=C/c1ccccc1)/C=C/c1ccccc1,67.1 µM

# Tested on: RXF 393 renal
# Assay: growth of human tumour cells (NCI), 48 h
row,SMILES,TGI
1,O=C(Nc1ccc([N+](=O)[O-])cc1)C1C(=O)C(=O)N(c2ccc([N+](=O)[O-])cc2)C1=O (stereo not given),> 100 µM
2,CCOC(=O)C1N(S(=O)(=O)c2ccc(C)cc2)CCC12C(c1ccc(OC)cc1)NC1CCCCC12 (stereo not given),> 100 µM
3,O=C(/C=C/c1ccccc1)/C=C/c1ccccc1,> 100 µM

# Tested on: UO-31 renal
# Assay: growth of human tumour cells (NCI), 48 h
row,SMILES,TGI
1,Cc1cccc(NC(=O)/C=C/c2ccc(N(CCC#N)CCC#N)cc2C)c1,> 100 µM
2,O=C(Nc1ccc([N+](=O)[O-])cc1)C1C(=O)C(=O)N(c2ccc([N+](=O)[O-])cc2)C1=O (stereo not given),> 100 µM
3,CCOC(=O)C1N(S(=O)(=O)c2ccc(C)cc2)CCC12C(c1ccc(OC)cc1)NC1CCCCC12 (stereo not given),> 100 µM
4,O=C(/C=C/c1ccccc1)/C=C/c1ccccc1,> 100 µM

# Tested on: LXFL 529 NSCLC
# Assay: growth of human tumour cells (NCI), 48 h
row,SMILES,TGI
1,Cc1cccc(NC(=O)/C=C/c2ccc(N(CCC#N)CCC#N)cc2C)c1,> 100 µM
2,O=C(Nc1ccc([N+](=O)[O-])cc1)C1C(=O)C(=O)N(c2ccc([N+](=O)[O-])cc2)C1=O (stereo not given),> 100 µM
3,CCOC(=O)C1N(S(=O)(=O)c2ccc(C)cc2)CCC12C(c1ccc(OC)cc1)NC1CCCCC12 (stereo not given),> 100 µM
4,O=C(/C=C/c1ccccc1)/C=C/c1ccccc1,50.1 µM

# Tested on: HCT-116 colon
# Assay: growth of human tumour cells (NCI), 48 h
row,SMILES,TGI
1,Cc1cccc(NC(=O)/C=C/c2ccc(N(CCC#N)CCC#N)cc2C)c1,> 100 µM
2,O=C(Nc1ccc([N+](=O)[O-])cc1)C1C(=O)C(=O)N(c2ccc([N+](=O)[O-])cc2)C1=O (stereo not given),> 100 µM
3,CCOC(=O)C1N(S(=O)(=O)c2ccc(C)cc2)CCC12C(c1ccc(OC)cc1)NC1CCCCC12 (stereo not given),> 100 µM
4,O=C(/C=C/c1ccccc1)/C=C/c1ccccc1,32.1 µM

# Tested on: HCC-2998 colon
# Assay: growth of human tumour cells (NCI), 48 h
row,SMILES,TGI
1,Cc1cccc(NC(=O)/C=C/c2ccc(N(CCC#N)CCC#N)cc2C)c1,> 100 µM
2,O=C(Nc1ccc([N+](=O)[O-])cc1)C1C(=O)C(=O)N(c2ccc([N+](=O)[O-])cc2)C1=O (stereo not given),> 100 µM
3,CCOC(=O)C1N(S(=O)(=O)c2ccc(C)cc2)CCC12C(c1ccc(OC)cc1)NC1CCCCC12 (stereo not given),> 100 µM
4,O=C(/C=C/c1ccccc1)/C=C/c1ccccc1,> 100 µM

# Tested on: SK-MEL-5 melanoma
# Assay: growth of human tumour cells (NCI), 48 h
row,SMILES,TGI
1,Cc1cccc(NC(=O)/C=C/c2ccc(N(CCC#N)CCC#N)cc2C)c1,> 100 µM
2,O=C(Nc1ccc([N+](=O)[O-])cc1)C1C(=O)C(=O)N(c2ccc([N+](=O)[O-])cc2)C1=O (stereo not given),> 100 µM
3,CCOC(=O)C1N(S(=O)(=O)c2ccc(C)cc2)CCC12C(c1ccc(OC)cc1)NC1CCCCC12 (stereo not given),> 100 µM
4,O=C(/C=C/c1ccccc1)/C=C/c1ccccc1,> 100 µM

# Tested on: UACC-62 melanoma
# Assay: growth of human tumour cells (NCI), 48 h
row,SMILES,TGI
1,Cc1cccc(NC(=O)/C=C/c2ccc(N(CCC#N)CCC#N)cc2C)c1,> 100 µM
2,O=C(Nc1ccc([N+](=O)[O-])cc1)C1C(=O)C(=O)N(c2ccc([N+](=O)[O-])cc2)C1=O (stereo not given),19.5 µM
3,CCOC(=O)C1N(S(=O)(=O)c2ccc(C)cc2)CCC12C(c1ccc(OC)cc1)NC1CCCCC12 (stereo not given),> 100 µM
4,O=C(/C=C/c1ccccc1)/C=C/c1ccccc1,87.1 µM

# Tested on: K-562 leukemia
# Assay: growth of human tumour cells (NCI), 48 h
row,SMILES,TGI
1,Cc1cccc(NC(=O)/C=C/c2ccc(N(CCC#N)CCC#N)cc2C)c1,> 100 µM
2,O=C(Nc1ccc([N+](=O)[O-])cc1)C1C(=O)C(=O)N(c2ccc([N+](=O)[O-])cc2)C1=O (stereo not given),> 100 µM
3,CCOC(=O)C1N(S(=O)(=O)c2ccc(C)cc2)CCC12C(c1ccc(OC)cc1)NC1CCCCC12 (stereo not given),> 100 µM
4,O=C(/C=C/c1ccccc1)/C=C/c1ccccc1,> 100 µM

# Tested on: HOP-92 NSCLC
# Assay: growth of human tumour cells (NCI), 48 h
row,SMILES,TGI
1,Cc1cccc(NC(=O)/C=C/c2ccc(N(CCC#N)CCC#N)cc2C)c1,> 100 µM
2,O=C(Nc1ccc([N+](=O)[O-])cc1)C1C(=O)C(=O)N(c2ccc([N+](=O)[O-])cc2)C1=O (stereo not given),> 100 µM
3,CCOC(=O)C1N(S(=O)(=O)c2ccc(C)cc2)CCC12C(c1ccc(OC)cc1)NC1CCCCC12 (stereo not given),80.9 µM
4,O=C(/C=C/c1ccccc1)/C=C/c1ccccc1,88.6 µM

# Tested on: SF-268 CNS
# Assay: growth of human tumour cells (NCI), 48 h
row,SMILES,TGI
1,Cc1cccc(NC(=O)/C=C/c2ccc(N(CCC#N)CCC#N)cc2C)c1,> 100 µM
2,O=C(Nc1ccc([N+](=O)[O-])cc1)C1C(=O)C(=O)N(c2ccc([N+](=O)[O-])cc2)C1=O (stereo not given),> 100 µM
3,CCOC(=O)C1N(S(=O)(=O)c2ccc(C)cc2)CCC12C(c1ccc(OC)cc1)NC1CCCCC12 (stereo not given),> 100 µM
4,O=C(/C=C/c1ccccc1)/C=C/c1ccccc1,66.4 µM

# Tested on: HOP-18 NSCLC
# Assay: growth of human tumour cells (NCI), 48 h
row,SMILES,TGI
1,O=C(Nc1ccc([N+](=O)[O-])cc1)C1C(=O)C(=O)N(c2ccc([N+](=O)[O-])cc2)C1=O (stereo not given),> 100 µM
2,O=C(/C=C/c1ccccc1)/C=C/c1ccccc1,92.8 µM

# Tested on: OVCAR-5 ovarian
# Assay: growth of human tumour cells (NCI), 48 h
row,SMILES,TGI
1,Cc1cccc(NC(=O)/C=C/c2ccc(N(CCC#N)CCC#N)cc2C)c1,> 100 µM
2,O=C(Nc1ccc([N+](=O)[O-])cc1)C1C(=O)C(=O)N(c2ccc([N+](=O)[O-])cc2)C1=O (stereo not given),> 100 µM
3,CCOC(=O)C1N(S(=O)(=O)c2ccc(C)cc2)CCC12C(c1ccc(OC)cc1)NC1CCCCC12 (stereo not given),> 100 µM
4,O=C(/C=C/c1ccccc1)/C=C/c1ccccc1,> 100 µM

# Tested on: HL-60(TB) leukemia
# Assay: growth of human tumour cells (NCI), 48 h
row,SMILES,TGI
1,Cc1cccc(NC(=O)/C=C/c2ccc(N(CCC#N)CCC#N)cc2C)c1,> 100 µM

# — PubChem BioAssay (NCI)
